pIC50: −log10 of the molar value.
Target: Replicase polyprotein 1ab (Severe acute respiratory syndrome coronavirus, UniProt P0C6X7)
Test: SARS-CoV 3CL Protease Inhibition Assay
Details: pH 7; 25 °C
Protocol: The effects of compound on enzyme activity were measured by using a fluorogenic peptide cleavage assay. Enhanced fluorescence caused by cleavage of the substrate peptide was monitored at 538 nm with excitation at 355 nm. The Ki measurements were performed at two fixed inhibitor concentrations and various substrate concentrations.

Q: CCOC(=O)/C=C/[C@H](C[C@@H]1CCNC1=O)NC(=O)[C@@H](CC(=O)[C@@H](NC(=O)c1cc(C)on1)C(C)C)Cc1ccc(F)cc1 [ethyl (2E,4S)-4-[((2R,5S)-2-(4-fluorobenzyl)-6-methyl-5-{[(5-methylisoxazol-3-yl)carbonyl]amino}-4-oxoheptanoyl)amino]-5-[(3S)-2-oxopyrrolidin-3-yl]pent-2-enoate] was tested. Which pIC50 did it give?
A: < 4.00

Reference: BindingDB's records for doi:10.1016/j.bmc.2005.05.065 (National Taiwan University, 2005)
